# Results published in the SangsterLogP compilation.
# Assays:
# [1] = method code SF-AS, from DOI: 10.1016/s0045-6535(00)00181-8, PMID: 11272912
# [2] = method code SF-AS, from DOI: 10.1016/s0378-5173(98)00405-0, PMID: 10089287; settings: pH 7.4
# [3] = method code SF-AS, from DOI: 10.1016/0045-6535(95)00267-c
# [4] = method code G-HPLC, from DOI: 10.1016/s0021-9673(01)94303-1
# [5] = method code SF-AS, from DOI: 10.1002/jps.2600650731; settings: pH 11.5
# [6] = method code SF-AS, from DOI: 10.1021/jm00154a021, PMID: 3959031; settings: pH 9.0
# [7] = method code SF, from Zhuang, J.; Mo, H.; An, F.; Yang, K. (1993). Determination of the water solubility and n-octanol/water partition coefficient of pesticide N-(2,4-dimethylphenyl)-N'-methylamidine. Huanjing Huaxue, …
# [8] = not given; remark: listed apart in the source
# [9] = method code SF-AS, from PMID: 6692390; settings: pH 4.0
# [10] = method code SF-GLC, from DOI: 10.1016/j.chemosphere.2005.05.003, PMID: 15967478
# [11] = method code SF, from DOI: 10.1093/jnci/60.2.345, PMID: 621753
# [12] = method code SF-HPLC, from DOI: 10.1021/jm00109a018, PMID: 2033591; settings: pH 7.0
# [13] = method code SF, from Ganellin, C. R., & Durant, G. J. (1981). Histamine H2-receptor agonists and antagonists. Burgers Medicinal Chemistry, 3, 487-552.; settings: pH 9.2
# [14] = pH 9.2
# [15] = not given; remark: listed apart in the source
# [16] = method code SF-AS, from DOI: 10.1016/j.jct.2016.12.034; settings: pH 7.4
# [17] = method code SF-AS, from DOI: 10.1111/j.2042-7158.1980.tb13082.x, PMID: 6110743
# [18] = not given; remark: listed apart in the source
# [19] = method code SF-AS, from DOI: 10.1002/jps.2600711105; settings: pH 7.4
# [20] = method code SF-HPLC, from DOI: 10.1002/hlca.19880710534; settings: pH 7.4
# [21] = method code SF-RC, from DOI: 10.1021/jm070791g.s001, PMID: 17960926
# [22] = method code SF-AS, from DOI: 10.5012/bkcs.2007.28.7.1183
# [23] = method code SF-GLC, from DOI: 10.1021/je970069v
# [24] = method code SF-AS, from DOI: 10.2116/analsci.13.897; settings: pH 2.0
# [25] = method code SF-AS, from DOI: 10.1139/y89-042, PMID: 2547502; settings: pH 7.4
# [26] = method code SF-AS, from Dai, Y.; Jiang, J.; Wang, Z.; Xue, Q. (2007). Experimental and QPSR studies on octanol-water partition coefficient of substituted anilines. J. Struct. Chem, 26(12)1449-1454.
# [27] = method code SF-RC, from DOI: 10.1002/jlcr.2580210110; settings: pH 7.4
# [28] = method code SF-HPLC, from DOI: 10.1016/0378-5173(88)90220-7; settings: pH 7.4
# [29] = method code SF-HPLC, from Blakemore, C.; Brown, H.; Durant, J.; Emmett, C.; Ganellin, R.; Parsons, E.; Rasmussen, C. (1980). SK&F 92994: a new histamine H2-receptor antagonist. COMMUNICATIONS: Part II. Br. J. Pharmacol., …
# [30] = not given; remark: listed apart in the source
# [31] = method code SF-AS, from DOI: 10.1016/0005-2744(69)90103-x, PMID: 4387594
# [32] = not given; remark: listed apart in the source
# [33] = not given; remark: listed apart in the source
# [34] = method code SF-AS, from DOI: 10.1021/jm010817i, PMID: 11806714; settings: pH 7.4
# [35] = method code SF-AS, from DOI: 10.1021/jm00047a013, PMID: 7932583
# [36] = method code SF-AS, from DOI: 10.1021/jm00128a017, PMID: 2754702; settings: pH 7.4
# [37] = method code SF-AS, from DOI: 10.2307/3575639, PMID: 7313077; settings: pH 7.4
# [38] = method code SF-RC, from DOI: 10.1182/blood.v76.11.2389.bloodjournal76112389, PMID: 2257308; settings: pH 7.4
# [39] = method code SF, from DOI: 10.1016/s0021-9673(01)84246-1
# [40] = method code SF-RC, from DOI: 10.1016/j.nucmedbio.2011.07.009, PMID: 21958846; settings: pH 7.4
# [41] = method code SF-GLC,AS, from DOI: 10.2134/jeq1981.00472425001000030028x
# [42] = method code SF-AS, from DOI: 10.1016/s0021-9673(01)87148-x, PMID: 1744207; settings: pH 3.4
# [43] = method code SF-RC, from DOI: 10.1016/j.nucmedbio.2007.06.005, PMID: 17707813; settings: pH 7.4
# [44] = method code SF-RC, from Audran, M.; Chanal, J.; Marignan, R.; Cousse, H. (1984). Correlations between structure and pharmacokinetic parameters in a series of cresotinamides. International Journal of Pharmaceutics, …; settings: pH 1.0
# [45] = method code SF, from DOI: 10.1016/0006-291x(88)90214-8; settings: pH 7.4
# [46] = not given; remark: listed apart in the source
smiles,measurement,setting,value
COc1cc(C=O)c(OC)c(OC)c1,logP,[1],1.91
CC(C)N1C(=O)c2ccccc2NS1(=O)=O,logP,,1.95
Cc1nc2ccccn2c(=O)c1C,logD,[2],1.14
CC(C)(C#N)Nc1nc(Cl)nc(NC2CC2)n1,logP,[3],1.99
CCCCc1ccccc1,logP,[4],4.29
CC/N=C(N)/N=C(\N)Nc1ccc(Cl)cc1,logD,[5],2.14
CN1CCN(CCn2cncc2[N+](=O)[O-])CC1,logD,[6],-0.2
CNC=Nc1ccc(C)cc1C,logP,[7],2.92
C1COC(NC(C2CC2)C2CC2)=N1,logP,[8],1.63
CC(=O)c1ccc(NC(=O)N(C)N=O)cc1,logD,[9],0.26
CC1=CCC(C(C)C)C=C1 (configuration not stated),logP,[10],4.58
O=NN(CCCl)C(=O)NCCCCNC(=O)N(CCCl)N=O,logP,[11],0.9
N=c1c2ncn([C@@H]3O[C@H](CO)C[C@@H]3F)c2ncn1O,logD,[12],-1.38
CNC(=S)NCCCCc1nc[nH]c1C,logD,[13],0.85
CN(C)CNC(=O)c1ccccc1,logD,[14],0.85
CC(C)c1ccc(CO)cc1,logP,[15],2.49
CC(=O)Nc1ccc(C=NNC(N)=S)cc1,logD,[16],1.7
CCCCOc1cccc(O)c1,logP,[17],3.03
CNC(=O)Oc1cc(C)c(C)cc1Cl,logP,[18],2.3
COCC(O)Cn1c([N+](=O)[O-])nc(C(C)=O)c1C (configuration not stated),logD,[19],0.03
C=CCC1(CC(C)O)C(=O)NC(=O)NC1=O (configuration not stated),logD,[20],-0.01
O=c1[nH]c(=O)n([C@H]2C=C[C@@H](CO)C2)cc1I,logP,[21],0.29
Nc1ccc(S(=O)(=O)Nc2cnc(Cl)cn2)cc1,logP,[22],0.25
Cc1ccc(C(C)C)c(Cl)c1Cl,logP,[23],5.5
CCC(C(=O)O)c1ccccc1 (configuration not stated),logD,[24],2.47
Nc1ncnc2c1ncn2[C@@H]1O[C@@H]2COP(=O)(O)O[C@H]2[C@H]1O,logD,[25],-2.96
CCN(CC)c1ccccc1,logP,[26],3.11
C1C2CC3CC1CC(C2)C3,logD,[27],5.2
CC(=O)N(C)S(=O)(=O)c1ccc(C)cc1,logD,[28],1.73
COC(=O)c1ccc(CN(C)N=O)cc1,logP,[29],1.21
Cc1cnc2n(c1=O)CCCC2C (configuration not stated),logP,[30],0.69
CCCCNc1ccccc1,logP,[31],3.58
Cc1ccc(C(C)C)cc1,logP,[32],4.14
CC1(C)CC(C(=O)O)CC(C)(C)N1O,logP,[33],1.25
CC(=O)NCc1c(O)c(=O)cc(C)n1C,logD,[34],-0.82
Cc1cn([C@H]2C[C@H](F)[C@@H](CO)O2)c(=O)[nH]c1=O,logP,[35],-0.3
Nc1nc(N)c2ncn([C@H]3C=C[C@@H](CO)O3)c2n1,logD,[36],-0.48
CNC(=O)c1cc(N2CC2)c([N+](=O)[O-])cc1[N+](=O)[O-],logD,[37],0.44
CCc1c(O)c(=O)ccn1CCOC,logD,[38],-0.08
Nc1nc2c(ncn2[C@@H]2O[C@H](CO)[C@@H](O)[C@H]2O)c(=O)[nH]1,logP,[39],-1.85
Cc1c(CC(CO)CF)n(C)c(=O)[nH]c1=O (configuration not stated),logD,[40],-0.56
CCN(CC)c1nc(Cl)nc(NC(C)C)n1,logP,[41],3.94
C/C(=C\c1ccccc1)C(=O)O,logD,[42],2.58
Nc1nc(F)c2ncn(CCC(CO)CO)c2n1,logD,[43],-0.52
CCNC(=O)c1cc(Cl)cc(C)c1O,logD,[44],3.55
Cc1cn([C@H]2CC[C@@H](CO)O2)c(=O)[nH]c1=O,logD,[45],-0.7
CCC(C)C1(CC)C(=O)NC(=O)NC1=O (configuration not stated),logP,[46],1.58
